Key:
[1] = tested on: osteoclast formation in mouse bone marrow culture; assay: Mouse bone marrow culture, osteoclast formation (TRAP-positive multinucleated cells); type: cell-based
Experimental: This culture system is the most used method to study osteoclast differentiation (Takahashi et al. 1988a). Mouse marrow cells can be induced to form active osteoclasts in 6-8 days in the presence of an osteotropic factor, such as 1,25(OH)2D3, parathyroid hormone, interleukin-1 or prostaglandin E2 (Takahashi et al. 1988b, Shinar et al. 1990, Collins and Chambers 1992, Jimi et al. 1999). Typically, 10^6 cells are cultured/ml of media for 6 days. Then, the cells are fixed with 3% paraformaldehyde in PBS and stained for osteoclast marker, such as tartrate-resistant acid phosphatase (TRAP). Sigma's immunohistochemical kit can be used. Multinucleated, TRAP-positive cells containing at least 3 nuclei are counted as osteoclasts (Hentunen et al. 1998).
(§1) The concentration range of the test compound in these assays was 10^−10-10^−5 M.

[2] = tested on: osteoclast formation in spleen cell culture; assay: Mouse spleen cell culture, osteoclast formation; type: cell-based
From the text: as §1

[3] = tested on: mouse osteoprogenitor cells (preosteoblasts) supporting osteoclast formation; assay: Mouse spleen cell/osteoblast co-culture with pre-treated osteoprogenitor cells; type: cell-based; conditions: osteoprogenitor cells incubated with 10^-5 M for 24 h, then co-culture with spleen cells; data not shown
From the text: Bone marrow stromal cells have long been known as a source of osteoprogenitor cells (Owen and Friedenstein 1988). […] These preosteoblasts can be further induced to form active osteoblasts by continuing the cultures for two more weeks in the presence of estrogen (17β-estradiol). During this culture period cells begin to express increasing levels of osteoblast markers, such as alkaline phosphatase, type I collagen and osteocalcin, and finally they are able to form bone. Bone formation is detected by bone nodule formation and calcium deposition in the cultures (Qu et al. 1998).
A co-culture system was developed, which contains mouse spleen cells and primary mouse osteoprogenitor cells. Osteoprogenitor cells were prepared from mouse marrow as described in section C.
When these two cell types were cultured in the presence of 1,25(OH)2D3, several osteoclasts were formed. Spleen cells alone with 1,25(OH)2D3 were not able to differentiate into osteoclasts. Mouse osteoprogenitor cells, which were able to support osteoclast formation, were incubated first with 10^−5 M of the said test compound for 24 h and then these cells were used in the co-culture with mouse spleen cells. […] This further supports the idea, that the test compound has direct inhibitory effect on osteoclast precursors.

isolated rat osteoclasts = assay: Rat osteoclast culture on bovine bone slices; type: cell-based
Experimental: Osteoclasts can be isolated from long bones of several species and they are cultured on bone or dentine slices to study their resorption activity (Boyde et al. 1984, Chambers et al 1984). Mostly, either rat or rabbit osteoclasts are used. They are isolated from new-born animals and cultured for 1-2 days. The resorption activity is determined either by counting the number of resorption pits on bone/dentine slices or the total resorption area is measured using a phase contrast microscope and image analysis system. We are routinely using isolated rat osteoclasts and we culture them on bovine bone slices for two days, after which we fix the cells. Cells are stained with toluidine blue and counted under the microscope (Arnett and Dempster 1987, Lakkakorpi et al. 1989). Then the cells are removed by brushing them and the resorption pits are stained with WGA lectin, which binds to resorption lacuna in the bone slice. The number and area of pits are quantified (Selander et al. 1994).
as §1

ovariectomized rats = assay: Tests on ovariectomized rats (pQCT and bone strength); type: in vivo, rat; conditions: 12 weeks
Experimental: The activity of [[(3-hydroxy-2-pyridyl)amino]methylidene]bisphosphonic acid tetraethylester (TC) has been tested in ovariectornized rats. In the said tests, the compound to be tested was administered to six-month old rats. The control rats were sham-operated or overiectomized and given vehicle. The compound was given to ovariectomized rats orally 7 days a week for 12 weeks beginning immediately after the surgery. The doses were 10, 50 and 100 mg/kg/day. At the end of the study, the mineral density and the geometry of the bone was measured with pQCT (peripheral quantitative computed tomography). The strength of the bone was measured with electromechanical materials testing machine. The sites of measurement were the proximal end of the tibia (not strength), the lumbar vertebra, the femoral neck and the tibial mid-diaphysis. The parameters to be measured were the bone density of the trabecular or cortical bone, the cortical area and strength of the bone.

[4] = tested on: bone metastases of human breast cancer cells in the mouse; assay: Metastasis model in mouse (human breast cancer cells, osteolytic bone lesions); type: in vivo; conditions: 50 mg/kg/day s.c. for 10 days
Experimental: The effect of the test compound has been tested in a metastasis model in the mouse. 14 days after inoculation with human breast cancer cells, when the radiologically detected osteolytic bone lesions were found, the animals were treated either with PBS (control) or the test compound (50 mg/kg/day, s.c.) for 10 days. At the end of the study, osteoclast number and bone area were measured histomorphometrically.

Structure (SMILES): CCOP(=O)(OCC)C(Nc1ncccc1O)P(=O)(OCC)OCC [test compound, [[(3-hydroxy-2-pyridinyl)amino]methylidene]bisphosphonic acid tetraethylester]
- inhibition at 1 µM ([1]; Mus musculus, Osteoclast, at 10^-6 M): 60%
- TRAP-positive MNC formation ([1]; at 10^-5 M): inhibit completely
- toxic effect on other cells ([1]; at 10^-5 M): without having toxic effect on other cells
- 1,25(OH)2D3- and PTH-induced osteoclast formation ([1]; bone marrow culture, concentration range 10^-10-10^-5 M): dose dependently inhibited
- inhibition at 1 µM ([2]; Mus musculus, Osteoclast, at 10^-6 M concentration): 60%
- TRAP-positive MNC formation ([2]; at 10^-5 M): completely blocked
- osteoclast-like cell formation (TRAP-positive MNC or mononuclear cells) ([2]; at 10^-5 M, data not shown): totally blocked
- inhibition of osteoclast formation ([2]; compound present on days 4-6): approximately 40%
- inhibition of osteoclast formation ([2]; compound present only at days 1-3): more than 60%
- osteoclast formation in spleen cell culture ([2]; concentration range 10^-10-10^-5 M): dose dependently inhibited
- support of osteoclast formation by treated preosteoblasts [3]: supported osteoclast formation in the similar manner as non-treated preosteoblasts
- osteoclast-mediated bone resorption (isolated rat osteoclasts; data not shown): did not have any effect
- osteoclast apoptosis (isolated rat osteoclasts; osteoclasts cultured for 1-2 days on bovine bone slices): did not have any effect
- change in the cortical area in the femoral neck caused by ovariectomy (ovariectomized rats; 50 mg/kg/day oral): inhibited the change
- strength of the tibial mid-diaphysis (ovariectomized rats; 50 mg/kg/day oral): improved, although not to a significantly meaningful degree
- cortical area in the tibial mid-diaphysis (ovariectomized rats; 50 mg/kg/day oral, compared to a normal rat and an ovariectomized rat): increase of the cortical area
- change in the trabecular density in the femoral neck caused by ovariectomy (ovariectomized rats; 100 mg/kg/day oral): inhibited the change
- area of the cortical bone in the lumbar vertebra, reduction by ovariectomy (ovariectomized rats; 50 and 100 mg/kg/day oral): inhibit these changes
- density of the trabecular bone in the lumbar vertebra, reduction by ovariectomy (ovariectomized rats; 50 and 100 mg/kg/day oral): inhibit these changes
- strength of the cortical bone in the lumbar vertebra, reduction by ovariectomy (ovariectomized rats; 50 and 100 mg/kg/day oral): inhibit these changes
- thickness of the cortical bone (pQCT), reduction caused by ovariectomy (ovariectomized rats; oral, FIG. 5 lower row): can be inhibited
- tumor induced decrease in bone area at the site of metastases [4]: inhibited
- number of osteoclasts at the tumor-bone interface ([4]; compared to PBS control): decreased significantly
